From US9205064B2, “Methods for the diagnosis of oncological disorders using epimetabolic shifters, multidimensional intracellular molecules, or environmental influencers” (Berg LLC, priority 2009, dated 2015) come the findings set out here.

The subject of one assay is variety of cell types. Briefly: Western blot analysis (Bcl-xL, Vimentin, oxidative phosphorylation complexes, mitochondrial membrane integrity proteins). Particulars: 50 or 100 μM Q10. The class given is cell-based. The procedure: Approximately 50 μg of protein were assayed per sample by immunoblotting. All treatments were run in triplicate with controls. […] The primary antibodies were incubated overnight at 4 degrees C. in a 5% BSA and TBST solution. Secondary antibodies were incubated for one hour at 4 degrees. All antibodies were purchased from Cell Signaling Technology. Antibodies were used at a ratio of 1:1000, with the exception of βActin at a ratio of 1:5000. Blots were developed and results were quantified using the NIH Java based densitometer analysis software Image J. All blots were also probed for and normalized to their respective βActin expression.
The first experiment processed and evaluated by Western blot and 2-D gel electrophoresis was carried out on the skin cancer cell line SKMEL-28.
A variety of cell types were evaluated by Western blot analysis against an antibody for Bcl-xL (FIG. 14), an antibody for Vimentin (FIG. 15), a series of antibodies for mitochondrial oxidative phosphorylation function (FIGS. 16-21) and against a series of antibodies related to mitochondrial membrane integrity (FIGS. 22-27).

A further assay relates to ATP Citrate Lyase (ACL). Briefly: Western blot of ATP citrate lyase levels in normal and cancer cells. The class given is cell-based, human. As to the method:
The whole cell pellets were resuspended one at a time in 1 mL of C7 buffer and transferred to labeled 15 mL tubes. The samples were then sonicated in the cold room on ice using 6 sonic pulses with the setting at #14. The samples were spun for a short time to 2500 g after sonication and the samples transferred to 2 ml tubes. The pH was verified of each sample (pH should be 9.0) using the foam remaining in the […] sample tubes.
After transfer each of the blots was placed in between 2 Whatman Filter papers and dried for 15-20 minutes. After drying the blots were labeled with the date, the type of samples and either blot 1 or blot 2 using a HB pencil. The molecular weight markers were outlined with the pencil and with single lines for the blue and a doublet for the colored markers. The blots were activated with methanol for 5 seconds, washed with water for 5 minutes, and TBST for 15 minutes. The blots were blocked for 1 hour with 5% blocking reagent in TBS-T at room temperature and then washed 3 times with TBS-T (1×-15′; 2×5′ each). Blot 1 was probed with the primary antibody for IDH1 (Cell Signaling #3997) in TBST with 5% BSA (at 1:1000 dilutions) and blot 2 with the rabbit polyclonal antibody for ATP Citrate Lyase in 5% BSA (Cell Signaling #4332) at 1:1000 dilution by incubation overnight at 4 deg C. with shaking. After the overnight incubation with primary antibodies, the blots were washed 3 times with TBS-T (1×-15′; 2×5′ each) and probed with the secondary antibody (antirabbit; 1:10,000 dilution) for 1 h on the orbital tilting shaker at room temperature. After 1 h of incubation with secondary antibodies, the blots were washed 3 times with TBS-T (1×-15′; 2×5′ each) and then incubated with ECF reagent for 5 mins and then each blot scanned with 5100 Fuji Laser scanner at 25 uM resolution, 16 bit, green laser, at 400V and at 500 V.
The samples were processed and run on a 4-12% Bis-Tris Novex NuPAGE gel as described above. The gels were run, transferred and stained essentially as described above.
The Isocitrate dehydrogenase blot was stripped by incubating for 30 minutes with methanol, followed by two 10 minute washes with TBS-T, then 30 minutes of incubation with stripping buffer at 50 deg C., and followed by two washes with 100 ml or more of TBS-T for 30′ each. The blot was scanned in laser scanner to check for complete stripping. The blot was activated with methanol for 5 seconds, washed with water for 5 minutes, and TBST for 15 minutes. The blot was blocked for 1 hour with 5% blocking reagent in TBS-T at room temperature and then washed 3 times with TBS-T (1×-15′; 2×5′ each). This was then probed with the rabbit polyclonal antibody for ATP Citrate Lyase in 5% BSA (Cell Signaling #4332) at 1:1000 dilution overnight at 4 deg C. with shaking. After the overnight incubation with primary antibody for ATP Citrate Lyase, the membrane was washed 3 times with TBS-T (1×-15′; 2×5′ each) and probed with the secondary antibody (antirabbit; 1:10,000 dilution) for 1 h on the orbital tilting shaker at room temperature. After 1 h of incubation with secondary antibodies, the blot was washed 3 times with TBS-T (1×-15′; 2×5′ each) and then incubated with ECF reagent for 5 minutes and then each blot scanned with 5100 Fuji Laser scanner at 25 uM resolution, 16 bit, green laser, at 400V and at 500 V.
In this experiment (western blot experiment 3), and in all of the experiments described below in this Example (i.e., western blot experiments 4 through 9), the cells were additionally treated with either 5 mM glucose (“5G”) or 22 mM glucose (“22G”). The samples derived from the cells were processed and run on a 4-12% Bis-Tris Novex NuPAGE gel as described above. The gels were run, transferred and stained essentially as described above.
The levels of IDH1, ATP citrate lyase and actin levels were determined by probing the blots with primary antibodies for IDH1, ATP citrate lyase and actin, essentially as described above.

A further assay has as its system HDFa cells. Put plainly: SeaHorse XF analyzer OCR and ECAR. The conditions noted are these: normoxic and hypoxic, 5.5 mM and 22 mM glucose. The class given is cell-based, human. An excerpt:
Environmental influencers (e.g., MIMs or Epi-shifters) may also be identified by changes in cellular energetics. One example of the measurement of cellular energetics are the real-time measures of the consumption of molecular oxygen and/or the change in pH of the media of a cell culture. For example, the ability of a potential epi-shifter to modulate the metabolic state of a cell may be analyzed using, for example, the XF24 Analyzer (Seahorse, Inc.). This technology allows for real time detection of oxygen and pH changes in a monolayer of cells in order to evaluate the bioenergetics of a cell microenvironment. The XF24 Analyzer measures and compares the rates of oxygen consumption (OCR), which is a measure of aerobic metabolism, and extracellular acidification (ECAR), which is a measure of glycolysis, both key indicators of cellular energetics.
(SeaHorse Biosciences Inc, North Billerica, Mass.).
In this experiment, the OCR and extracellular acidification rate (ECAR) in normal cells lines were obtained in the presence and absence of CoQ10 to determine baseline values. It was observed that in its native nutrient environment, the basal OCR rates in normal cells lines are different, and are usually a function of the physiological roles of the cells in the body.
FIGS. 29 and 30 describe the OCR in HDFa and HASMC cells grown in physiologically normal glucose (about 4.6 mM) and high glucose (hyperglycemic) conditions.
Table 53, below, describes the ECAR values (mpH/min) in HDFa cells in the presence or absence of CoQ10 under normoxic and hypoxic conditions at 5.5 mM and 22 mM glucose.

In the case of `COC1=C(OC)C(=O)C(C/C=C(\C)CC/C=C(\C)CC/C=C(\C)CC/C=C(\C)CC/C=C(\C)CC/C=C(\C)CC/C=C(\C)CC/C=C(\C)CC/C=C(\C)CCC=C(C)C)=C(C)C1=O` [Q10, Coenzyme Q10], the “levels of examined proteins (Bcl-xL, Vimentin, oxidative phosphorylation and mitochondrial membrane integrity proteins)” value in the assay on variety of cell types is given as “upregulated or downregulated”. Further, the “ATP Citrate Lysase ~kd band Normalized Intensity (HASMC vs. HepG2)” value in the assay with ATP Citrate Lyase (ACL) (HASMC, 5g48-50) turned out to be 23341; in the assay with ATP Citrate Lyase (ACL) (HASMC, 5g48-100) it was 25544; with ATP Citrate Lyase (ACL) (HASMC, 22G48-50), 21439; in the assay on ATP Citrate Lyase (ACL) (HASMC, 22G48-100), 19491; with ATP Citrate Lyase (ACL) (HepG2, 5g48-50), 24106; with ATP Citrate Lyase (ACL) (HepG2, 5g48-100), 22463. The “ATP Citrate Lysase ~kd band Normalized Intensity (HASMC vs. HepG2)” value is 31235 in the assay on ATP Citrate Lyase (ACL) (HepG2, 22G48-50) and 50588 in the assay with ATP Citrate Lyase (ACL) (HepG2, 22G48-100). Besides, the “ATP Citrate Lysase ~kd band Normalized Intensity (HASMC vs. PACA2)” value with ATP Citrate Lyase (ACL) (HASMC, 5g48-50) was 12056; in the assay with ATP Citrate Lyase (ACL) (HASMC, 5g48-100), 15265; with ATP Citrate Lyase (ACL) (HASMC, 22G48-50), 15857; in the assay with ATP Citrate Lyase (ACL) (HASMC, 22G48-100) it was 13892; in the assay with ATP Citrate Lyase (ACL) (PACA2, 5g48-50), 8027; with ATP Citrate Lyase (ACL) (PACA2, 5g48-100) it was 4942. Moreover, the “ATP Citrate Lysase ~kd band Normalized Intensity (HASMC vs. PACA2)” value in the assay with ATP Citrate Lyase (ACL) (PACA2, 22G48-50) was 9537; with ATP Citrate Lyase (ACL) (PACA2, 22G48-100), 14901. Moreover, the “influence on ECAR values” in the assay with HDFa cells is reported as “minimal influence”.
